According to patent US11807627B2, “Morphic forms of complement factor D inhibitors” (priority 2018, dated 2023):
≈ marks a conversion by molar mass, not a printed value.

Columns and labels:
[1] = Interconversion experiments: competitive slurries (Example 2, Table 6); type: physicochemical
Protocol: A solution of Compound 3 and solvent/solvent system of interest was prepared. Solids persisted in solution. The samples were placed onto a stir plate at ambient (RT) or elevated (ET) temperatures. The samples were monitored to ensure that solids persisted during the slurry process. The solids were collected via vacuum filtration and dried under ambient conditions. […] At ambient temperature, Forms B and M are both present after almost a week of slurrying.

[2] = pH experiments and SIF/SGF/FaSSIF/FeSSIF solubility (Examples 3 and 4); type: physicochemical
[3] = Solution stress testing (acid, base, oxidative degradation); type: physicochemical
[4] = Caco2 permeability and efflux ratio; type: in vitro ADME; details: human, Caco-2; Caco2; read-out: Efflux ratio (B-A/A-B)
Caco2 = Caco2 permeability and efflux ratio; type: in vitro ADME; details: A-B
[5] = ICH stability study of amorphous Compound 2; type: physicochemical
From the text: Compound 2 stored in double LDPE bag with silica gel in aluminum receptacle with lid had the following stability characteristics described in Table 9.

[6] = Dose number and BCS classification; type: physicochemical
[7] = Solid state stress testing (temperature, humidity, storage, photostability); type: physicochemical
Thermal stability by TGA = type: physicochemical; details: to 150° C.
Protocol: TG analyses were performed using a TA Instruments Q5000 IR thermogravimetric analyzer. Temperature calibration was performed using nickel and Alumel™. Each sample was placed in an aluminum pan. The sample was hermetically sealed, the lid pierced, then inserted into the TG furnace. The furnace was heated under nitrogen. The method code on the thermogram is an abbreviation for the start and end temperature as well as the heating rate; e.g., […] means “from 25° C. to 350° C., at 10° C./min”.

[8] = Vapor stress experiments at room temperature; type: physicochemical
From the text: Compound 3 was placed into vials which were sealed into chambers containing organic solvents. The samples were kept under these conditions for a period of days and then checked for signs of morphology changes.

[9] = Interconversion experiments: heat stress of forms (Table 6); type: physicochemical; details: no solvent
Protocol: Saturated solutions of Compound 3 or solids generated from crystallization attempts were prepared. A small quantity of the sample was placed into an oven set at a specified temperature. The samples were monitored, microscopically, for signs of crystallization.

[10] = Drying of isolated samples at 50° C. for approximately 24 hours; type: physicochemical
Protocol: Samples produced from thermal cycling, cooling and evaporation experiments were dried at 50° C. for approximately 24 hours to assess any de-solvation/dehydration. From temperature cycling experiments, 3 samples converted upon drying: • Acetonitrile sample converted from Form J to amorphous; • 40% Ethanol/60% Water (% v/v) converted from Form N to Form P; and • Methanol sample converted from Form O to amorphous.

[11] = Thermogravimetric/differential thermal analysis (TG/DTA); type: physicochemical; details: Table 22B
Protocol: Approximately, 5 mg of material was weighed into an open aluminium pan and loaded into a simultaneous thermogravimetric/differential thermal analyzer (TG/DTA) and held at room temperature. The sample was then heated at a rate of 10° C./min from 20° C. to 400° C. during which time the change in sample weight occurred was recorded along with any differential thermal events (DTA). Nitrogen was used as the purge gas at a flow rate of 300 cm^3/min.

[12] = Storage stability of Compound 3 forms (80° C., 40° C./75% RH, 25° C./60% RH, ambient); type: physicochemical; details: 40° C./75% RH or 25° C./60% RH, capped or uncapped vial
Protocol: No changes by XRPD or HPLC purity were observed when the material was stored at 40° C./75% RH, 80° C. or under ambient conditions.

[13] = Solvent solubility screen by solvent addition (lyophilized material); type: physicochemical; details: thermodynamic from solid
Protocol: A solvent solubility screen was conducted using 32 solvent systems. Approximately 360 mg of Compound 3 Form A was weighed into a 20 mL glass vial and dissolved using 18 mL of 1,4-dioxane. 0.5 mL of the solution was then dispensed into thirty-four 2 mL glass vials (approx. 10 mg per vial). The Compound 3 Form A solutions were then frozen (at −50° C.) and dried by lyophilization using a Lablyo mini freeze drier. Post-lyophilization, a sub-sample was taken and analyzed by XRPD. Material was successfully rendered amorphous by lyophilization.
The material produced from lyophilization was used for the solubility assessment. Solubility was estimated by a solvent addition technique. The solubility study was completed as follows: • Each solvent system was added to the appropriate vial in 5 volume aliquots until 100 volumes had been added or until the API dissolved; • Between each addition, samples were heated to 40° C. to check dissolution at elevated temperatures; • If 100 volumes of solvent were added without dissolution, solubility was calculated to be below this point.

## CC(=O)c1nn(CC(=O)N2[C@H](C(=O)Nc3nc(Br)ccc3C)C[C@@]3(C)C[C@@H]23)c2ccc(-c3cnc(C)nc3)cc12 [A vs. B]
[1]; ACN, RT Slurry
  Interconversion: XRPD Result after slurry: Form E
[1]; EtOAc, RT Slurry
  Interconversion: XRPD Result after slurry: Form B
[1]; EtOAc, ~50° C. Slurry
  Interconversion: XRPD Result after slurry: Form B

## CC(=O)c1nn(CC(=O)N2[C@H](C(=O)Nc3nc(Br)ccc3C)C[C@@]3(C)C[C@@H]23)c2ccc(-c3cnc(C)nc3)cc12 [A, B, G]
[1]; EtOAc, RT Slurry
  Interconversion: XRPD Result after slurry: Form B

## CC(=O)c1nn(CC(=O)N2[C@H](C(=O)Nc3nc(Br)ccc3C)C[C@@]3(C)C[C@@H]23)c2ccc(-c3cnc(C)nc3)cc12 [B, G, M]
[1]; EtOAc, ~50° C. Slurry
  Interconversion: XRPD Result after slurry: Form M*

## CC(=O)c1nn(CC(=O)N2[C@H](C(=O)Nc3nc(Br)ccc3C)C[C@@]3(C)C[C@@H]23)c2c(C)cc(-c3cnc(C)nc3)cc12 [Compound 2]
[2]; FaSSIF, read-out: FaSSIF solubility
  solubility: 0.0026 mg/mL (≈ 0.00422 mM)
[2]; FeSSIF, read-out: FeSSIF solubility
  solubility: 0.0047 mg/mL (≈ 0.00762 mM)
[3]; 0.1N HCl
  Solution stress testing: Acid degradation: Degradation observed
[3]; 0.1N HCl, 7-days at RT
  Acid degradation, extent: (~8% 7-days at RT)
[3]; 0.1N NaOH
  Solution stress testing: Base degradation: Degradation observed
[3]; 0.1N NaOH, 2-days at RT
  Base degradation, extent: (~18% 2-days at RT)
[3]; H2O2
  Solution stress testing: Oxidative degradation: Not susceptible to oxidation
[4]
  efflux ratio: 1.2
Caco2
  Caco2: A-B: Caco2: A-B ~26 × 10^−6 cm/s
[5]; 5° C./NR RH, 1-month
  Assay: 97.3%
  Total Impurities: 1.9%
  Water Content: 2.5%
  XRPD: amorphous
[5]; 5° C./NR RH, 3-month
  Assay: 97.5%
  Total Impurities: 1.7%
  Water Content: 2.3%
[5]; 5° C./NR RH, Time Zero
  Assay: 97.2%
  Total Impurities: 1.9%
  Water Content: 1.9%
  XRPD: amorphous
[5]; 25° C./60% RH, 1-month
  Assay: 97.0%
  Total Impurities: 1.9%
  Water Content: 3.0%
  XRPD: amorphous
[5]; 25° C./60% RH, 2 weeks
  Assay: 99.5%
  Total Impurities: 1.9%
  Water Content: 2.7%%
[5]; 25° C./60% RH, 3-month
  Assay: 97.8%
  Total Impurities: 1.9%
  Water Content: 3.1%
[5]; 25° C./60% RH, Time Zero
  Assay: 97.2%
  Total Impurities: 1.9%
  Water Content: 1.9%
  XRPD: amorphous
[5]; 40° C./75% RH, 1-month
  Assay: 97.5%
  Total Impurities: 1.9%
  Water Content: 4.0%
  XRPD: amorphous
[5]; 40° C./75% RH, 2 weeks
  Assay: 99.8%
  Total Impurities: 1.9%
  Water Content: 3.5%
[5]; 40° C./75% RH, 3-month
  Assay: 96.4%
  Total Impurities: 1.6%
  Water Content: 3.8%
[5]; 40° C./75% RH, Time Zero
  Assay: 97.2%
  Total Impurities: 1.9%
  Water Content: 1.9%
  XRPD: amorphous
[6]
  BCS class: BCS II compound
[6]; for 125 mg
  Dose Number: Dose Number (for 125 mg): 106-190
[7]; 70° C./75% RH
  Solid State Stress Testing: Chemical Stability: No degradation
  Solid State Stress Testing: Humidity: Amorphous crystallizes out
[7]; exposure to UV visible
  Solid State Stress Testing: Photostability: No light sensitivity
Thermal stability by TGA
  Thermal Stability by TGA: ~0.2% wt. loss to 150 °C

## CC(=O)c1nn(CC(=O)N2[C@H](C(=O)Nc3nc(Br)ccc3C)C[C@@]3(C)C[C@@H]23)c2ccc(-c3cnc(C)nc3)cc12 [Disordered]
[8]; EtOAc vapor
  Vapor stress: XRPD Result: Form B
[8]; MTBE vapor
  Vapor stress: XRPD Result: Form C

## CC(=O)c1nn(CC(=O)N2[C@H](C(=O)Nc3nc(Br)ccc3C)C[C@@]3(C)C[C@@H]23)c2ccc(-c3cnc(C)nc3)cc12 [Form C]
[9]; ~50° C.
  Interconversion: XRPD Result after heating: Form C

## CC(=O)c1nn(CC(=O)N2[C@H](C(=O)Nc3nc(Br)ccc3C)C[C@@]3(C)C[C@@H]23)c2ccc(-c3cnc(C)nc3)cc12 [Form E]
[9]; ~50° C.
  Interconversion: XRPD Result after heating: Form G

## CC(=O)c1nn(CC(=O)N2[C@H](C(=O)Nc3nc(Br)ccc3C)C[C@@]3(C)C[C@@H]23)c2ccc(-c3cnc(C)nc3)cc12 [Form F + C]
[9]; ~50° C.
  Interconversion: XRPD Result after heating: Form F + C

## CC(=O)c1nn(CC(=O)N2[C@H](C(=O)Nc3nc(Br)ccc3C)C[C@@]3(C)C[C@@H]23)c2ccc(-c3cnc(C)nc3)cc12 [Form G]
[9]; ~50° C.
  Interconversion: XRPD Result after heating: Form G
[9]; ~160° C.
  Interconversion: XRPD Result after heating: Form M

## CC(=O)c1nn(CC(=O)N2[C@H](C(=O)Nc3nc(Br)ccc3C)C[C@@]3(C)C[C@@H]23)c2ccc(-c3cnc(C)nc3)cc12 [Form J + Form L]
[9]; ~50° C.
  Interconversion: XRPD Result after heating: Form G

## CC(=O)c1nn(CC(=O)N2[C@H](C(=O)Nc3nc(Br)ccc3C)C[C@@]3(C)C[C@@H]23)c2ccc(-c3cnc(C)nc3)cc12 [Form M]
[1]; Forms B and M, approximately 50° C.
  Relative stability in competitive slurry: most stable

## CC(=O)c1nn(CC(=O)N2[C@H](C(=O)Nc3nc(Br)ccc3C)C[C@@]3(C)C[C@@H]23)c2ccc(-c3cnc(C)nc3)cc12 [Form N]
[10]
  Form after drying (de-solvation/dehydration): Form P
[11]
  Onset Temp: Weak thermal events: onset of 134.7 °C

## CC(=O)c1nn(CC(=O)N2[C@H](C(=O)Nc3nc(Br)ccc3C)C[C@@]3(C)C[C@@H]23)c2ccc(-c3cnc(C)nc3)cc12 [Form O]
[10]
  Form after drying (de-solvation/dehydration): amorphous
[11]; listed as Pattern O
  Onset Temp: Melting: Melting 179.6 °C

## CC(=O)c1nn(CC(=O)N2[C@H](C(=O)Nc3nc(Br)ccc3C)C[C@@]3(C)C[C@@H]23)c2ccc(-c3cnc(C)nc3)cc12 [Lyophilized Compound 3]
[12]
  Stability: recrystallization upon storage: no recrystallization
[13]; 2-propanol/heptane mixtures, organic solvent or mixture, 2-propanol, 95% 2-propanol/5% heptane, 70% 2-propanol/30% heptane, toluene, elevated temperatures (40° C.), read-out: Solubility (solvent addition), dissolution at elevated temperatures
  solubility: > 200 mg/mL
[13]; organic solvent or mixture, 1,4-dioxane, 1-butanol, 2-methyl THF, 95% 2-propanol/5% water, acetone, acetonitrile, 95% acetonitrile/5% water, chloroform, DCM, DMSO, ethyl acetate (dry), ethanol, isopropyl acetate, methanol, MEK, MIBK, DMF, DMA, THF, 95% methanol/5% water, read-out: Solubility (solvent addition)
  solubility: ≥ 200 mg/mL
[13]; organic solvent or mixture, 50% 2-propanol/50% heptane and 50% ethanol/50% heptane (% v/v), read-out: Solubility (solvent addition)
  solubility: > 100 mg/mL
[13]; n-heptane, tert-butylmethyl ether, ethyl ether, water, 50% 2-propanol/50% water, 40% ethanol/60% water, read-out: Solubility (solvent addition)
  solubility: < 10 mg/mL
